Experimental data as given in ChEMBL document CHEMBL4308841, “Synthesis, in vitro antiproliferative activity, and kinase inhibitory effects of pyrazole-containing diarylureas and diarylamides” (Eur J Med Chem, 2018).

Key:
NCI-H522 = assay: Growth inhibition of human NCI-H522 cells assessed as cell growth at 1 uM incubated for 48 hrs by sulforhodamine B assay relative to control; format: functional; conditions: NCI-H522, 48 h, read-out: Activity
A498 [1] = assay: Growth inhibition of human A498 cells assessed as cell growth at 1 uM incubated for 48 hrs by sulforhodamine B assay relative to control; format: functional; conditions: A498, 48 h, read-out: Activity
LOX IMVI = assay: Growth inhibition of human LOXIMVI cells assessed as cell growth at 100 uM incubated for 48 hrs by sulforhodamine B assay relative to control; format: functional; conditions: read-out: Activity
SR = assay: Growth inhibition of human SR cells assessed as cell growth at 1 uM incubated for 48 hrs by sulforhodamine B assay relative to control; format: functional; conditions: read-out: Activity
MDA-MB-231 = assay: Growth inhibition of human MDA-MB-231 cells incubated for 48 hrs by sulforhodamine B assay; format: functional, cell-based; conditions: MDA-MB-231, 48 h
OVCAR-8 = assay: Growth inhibition of human OVCAR8 cells assessed as cell growth at 0.01 uM incubated for 48 hrs by sulforhodamine B assay relative to control; format: functional; conditions: OVCAR-8, 48 h, read-out: Activity
SF-295 = assay: Growth inhibition of human SF295 cells assessed as cell growth at 100 uM incubated for 48 hrs by sulforhodamine B assay relative to control; format: functional; conditions: SF-295, 48 h, read-out: Activity
NCI-H322M = assay: Growth inhibition of human NCI-H322M cells assessed as cell growth at 100 uM incubated for 48 hrs by sulforhodamine B assay relative to control; format: functional; conditions: read-out: Activity
SW-620 = assay: Growth inhibition of human SW620 cells assessed as cell growth at 100 uM incubated for 48 hrs by sulforhodamine B assay relative to control; format: functional; conditions: SW-620, 48 h, read-out: Activity
HCT-15 = assay: Growth inhibition of human HCT15 cells assessed as cell growth at 0.1 uM incubated for 48 hrs by sulforhodamine B assay relative to control; format: functional; conditions: HCT-15, 48 h, read-out: Activity
T47D = assay: Growth inhibition of human T47D cells assessed as cell growth at 0.01 uM incubated for 48 hrs by sulforhodamine B assay relative to control; format: functional; conditions: read-out: Activity
HOP-62 = assay: Growth inhibition of human HOP62 cells incubated for 48 hrs by sulforhodamine B assay; format: functional, cell-based; conditions: HOP-62, 48 h
NCI-H460 [2] = assay: Growth inhibition of human NCI-H460 cells assessed as cell growth at 0.01 uM incubated for 48 hrs by sulforhodamine B assay relative to control; format: functional; conditions: NCI-H460, 48 h, read-out: Activity
Hs-578T [3] = assay: Growth inhibition of human Hs578T cells assessed as cell growth at 0.1 uM incubated for 48 hrs by sulforhodamine B assay relative to control; format: functional; conditions: read-out: Activity
MCF7 = assay: Growth inhibition of human MCF7 cells incubated for 48 hrs by sulforhodamine B assay; format: functional, cell-based; conditions: MCF7, 48 h
M14 = assay: Growth inhibition of human M14 cells incubated for 48 hrs by sulforhodamine B assay; format: functional, cell-based; conditions: M14, 48 h
UACC-62 = assay: Growth inhibition of human UACC62 cells assessed as cell growth at 1 uM incubated for 48 hrs by sulforhodamine B assay relative to control; format: functional; conditions: UACC-62, 48 h, read-out: Activity
Malme-3M [4] = assay: Growth inhibition of human MALME-3M cells assessed as cell growth at 0.01 uM incubated for 48 hrs by sulforhodamine B assay relative to control; format: functional; conditions: read-out: Activity
A498 [5] = assay: Growth inhibition of human A498 cells incubated for 48 hrs by sulforhodamine B assay; format: functional, cell-based; conditions: A498, 48 h
HT-29 = assay: Growth inhibition of human HT-29 cells assessed as cell growth at 0.01 uM incubated for 48 hrs by sulforhodamine B assay relative to control; format: functional; conditions: HT-29, 48 h, read-out: Activity
Hs-578T [6] = assay: Growth inhibition of human Hs578T cells assessed as cell growth at 1 uM incubated for 48 hrs by sulforhodamine B assay relative to control; format: functional; conditions: read-out: Activity
NCI-H460 [7] = assay: Growth inhibition of human NCI-H460 cells assessed as cell growth at 0.1 uM incubated for 48 hrs by sulforhodamine B assay relative to control; format: functional; conditions: NCI-H460, 48 h, read-out: Activity
SNB-19 = assay: Growth inhibition of human SNB19 cells incubated for 48 hrs by sulforhodamine B assay; format: functional, cell-based; conditions: SNB-19, 48 h
OVCAR-4 = assay: Growth inhibition of human OVCAR4 cells incubated for 48 hrs by sulforhodamine B assay; format: functional, cell-based; conditions: OVCAR-4, 48 h
SK-MEL-28 = assay: Growth inhibition of human SK-MEL-28 cells incubated for 48 hrs by sulforhodamine B assay; format: functional, cell-based; conditions: SK-MEL-28, 48 h
HCC 2998 = assay: Growth inhibition of human HCC2998 cells assessed as cell growth at 0.01 uM incubated for 48 hrs by sulforhodamine B assay relative to control; format: functional; conditions: HCC 2998, 48 h, read-out: Activity
BT-549 = assay: Growth inhibition of human BT549 cells assessed as cell growth at 1 uM incubated for 48 hrs by sulforhodamine B assay relative to control; format: functional; conditions: BT-549, 48 h, read-out: Activity
Malme-3M [8] = assay: Growth inhibition of human MALME-3M cells assessed as cell growth at 0.1 uM incubated for 48 hrs by sulforhodamine B assay relative to control; format: functional; conditions: read-out: Activity
[9] = read-out: LC50 (the source's name)
[10] = read-out: pLC50 (the source's name) (converted)

Q: What does the source list for `O=C(Nc1cccc(-n2cc(-c3ccncc3)c(-c3cc(O)cc(Cl)c3)n2)c1)c1cc(C(F)(F)F)cc(C(F)(F)F)c1`?
A: growth at 1 µM (NCI-H522): 54%; growth at 1 µM (A498 [1]): 78%; growth at 100 µM (LOX IMVI): -41%; growth at 1 µM (SR): 71%; GI50 (MDA-MB-231; read-out: GI50): 1.42 µM; CC50 (MDA-MB-231; [9]): 77.8 µM; TGI (MDA-MB-231; read-out: TGI): 33.2 µM; GI50 (MDA-MB-231; read-out: pGI50 (converted)): 1.41 µM; CC50 (MDA-MB-231; [10]): 7.76 µM; TGI (MDA-MB-231; read-out: pTGI (converted)): 3.31 µM; growth at 0.01 µM (OVCAR-8): 98%; growth at 100 µM (SF-295): -38%; growth at 100 µM (NCI-H322M): 13%; growth at 100 µM (SW-620): 13%; growth at 0.1 µM (HCT-15): 90%; growth at 0.01 µM (T47D): 102%; GI50 (HOP-62; read-out: GI50): 9.52 µM; CC50 (HOP-62; [9]): > 100 µM; TGI (HOP-62; read-out: TGI): > 100 µM; GI50 (HOP-62; read-out: pGI50 (converted)): 9.77 µM; CC50 (HOP-62; [10]): > 100 µM; TGI (HOP-62; read-out: pTGI (converted)): > 100 µM; growth at 0.01 µM (NCI-H460 [2]): 101%; growth at 0.1 µM (Hs-578T [3]): 92%; GI50 (MCF7; read-out: GI50): 2.55 µM; LC50 (MCF7; read-out: LC50): > 100 µM; TGI (MCF7; read-out: TGI): > 100 µM; GI50 (MCF7; read-out: pGI50 (converted)): 2.88 µM; LC50 (MCF7; read-out: pLC50 (converted)): > 100 µM; TGI (MCF7; read-out: pTGI (converted)): > 100 µM; GI50 (M14; read-out: GI50): 3.01 µM; CC50 (M14; [9]): > 100 µM; TGI (M14; read-out: TGI): > 100 µM; GI50 (M14; read-out: pGI50 (converted)): 3.02 µM; CC50 (M14; [10]): > 100 µM; TGI (M14; read-out: pTGI (converted)): > 100 µM; growth at 1 µM (UACC-62): 92%; growth at 0.01 µM (Malme-3M [4]): 97%; GI50 (A498 [5]; read-out: GI50): 4.75 µM; CC50 (A498 [5]; [9]): > 100 µM; TGI (A498 [5]; read-out: TGI): 90.8 µM; GI50 (A498 [5]; read-out: pGI50 (converted)): 4.79 µM; CC50 (A498 [5]; [10]): > 100 µM; TGI (A498 [5]; read-out: pTGI (converted)): 91.2 µM; growth at 0.01 µM (HT-29): 96%; growth at 1 µM (Hs-578T [6]): 92%; growth at 0.1 µM (NCI-H460 [7]): 100%; GI50 (SNB-19; read-out: GI50): 7.03 µM; CC50 (SNB-19; [9]): > 100 µM; TGI (SNB-19; read-out: TGI): > 100 µM; GI50 (SNB-19; read-out: pGI50 (converted)): 7.08 µM; CC50 (SNB-19; [10]): > 100 µM; TGI (SNB-19; read-out: pTGI (converted)): > 100 µM; GI50 (OVCAR-4; read-out: GI50): 8.53 µM; CC50 (OVCAR-4; [9]): > 100 µM; TGI (OVCAR-4; read-out: TGI): > 100 µM; GI50 (OVCAR-4; read-out: pGI50 (converted)): 8.51 µM; CC50 (OVCAR-4; [10]): > 100 µM; TGI (OVCAR-4; read-out: pTGI (converted)): > 100 µM; GI50 (SK-MEL-28; read-out: GI50): 4.71 µM; CC50 (SK-MEL-28; [9]): > 100 µM; TGI (SK-MEL-28; read-out: TGI): 85.3 µM; GI50 (SK-MEL-28; read-out: pGI50 (converted)): 4.68 µM; CC50 (SK-MEL-28; [10]): > 100 µM; TGI (SK-MEL-28; read-out: pTGI (converted)): 85.1 µM; growth at 0.01 µM (HCC 2998): 94%; growth at 1 µM (BT-549): 101%; growth at 0.1 µM (Malme-3M [8]): 52%
